One assay concerns the target T1, CDK2/cyclin A2 (Homo sapiens, UniProt P24941).
T1 construct: purchased Carna Biosciences, Inc. QS S Assist CDK2/Cyclin A2_FP Kit
Kind of assay: Human CDK2/cyclin A2 inhibitory activity (QS S Assist CDK2/Cyclin A2_FP Kit, IMAP fluorescent polarization). The format is biochemical. Conditions: read-out: CDK2 Activity symbol. The essentials: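 Kit CDK2/cyclin A2 (2.5 ng/well) was reacted with kit ATP/substrate/metal in 20 mM HEPES pH 7.4, 0.01% Tween 20 and 2 mM DTT for 60 min at room temperature. IMAP binding reagent was added for 30 min, then fluorescence polarization was read at 485/535 nm. IC50 came from dose-response fitting of percent inhibition.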

A further assay concerns the target T2, CDK4/cyclin D3 (Homo sapiens, UniProt P11802).
T2 construct: purchased Carna Biosciences, Inc. QS S Assist CDK4/Cyclin D3_FP Kit
Kind of assay: Human CDK4/cyclin D3 inhibitory activity (QS S Assist CDK4/Cyclin D3_FP Kit, IMAP fluorescent polarization). Conditions: read-out: CDK4 Activity symbol. The format is biochemical. The procedure, abridged: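 Kinase reactions used kit CDK4/cyclin D3 at 12.5–25 ng/well with the kit ATP/substrate/metal mix in 20 mM HEPES (pH 7.4), 0.01% Tween20 and 2 mM DTT, run 45 min at room temperature. Phosphorylation was detected by IMAP fluorescence polarization (ex 485/em 535 nm) after 30 min binding in the dark. IC50 was fitted from percent inhibition against DMSO controls with and without enzyme.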

Where only a bound is given, the exact number is not on record here.

T2 sequence (P11802 whole entry): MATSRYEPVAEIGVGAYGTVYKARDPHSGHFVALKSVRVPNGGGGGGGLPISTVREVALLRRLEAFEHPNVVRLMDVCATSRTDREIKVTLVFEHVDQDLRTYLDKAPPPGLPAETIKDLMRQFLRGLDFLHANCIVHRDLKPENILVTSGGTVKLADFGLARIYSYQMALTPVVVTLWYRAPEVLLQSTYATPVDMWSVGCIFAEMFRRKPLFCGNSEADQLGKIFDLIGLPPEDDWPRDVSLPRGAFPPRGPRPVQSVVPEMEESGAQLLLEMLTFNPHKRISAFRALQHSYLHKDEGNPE
T2 sequence (P30281 whole entry partner): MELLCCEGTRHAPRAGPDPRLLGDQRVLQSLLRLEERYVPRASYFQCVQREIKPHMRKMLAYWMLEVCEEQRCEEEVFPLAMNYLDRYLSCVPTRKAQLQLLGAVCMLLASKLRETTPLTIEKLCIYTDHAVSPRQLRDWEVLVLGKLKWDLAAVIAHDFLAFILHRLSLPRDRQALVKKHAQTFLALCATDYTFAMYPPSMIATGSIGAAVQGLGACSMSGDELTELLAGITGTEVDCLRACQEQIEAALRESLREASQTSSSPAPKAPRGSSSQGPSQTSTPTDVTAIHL

For the compound `COCc1cc2cnc(Nc3ccc(N4CCNCC4)cn3)nc2c(N2CCOCC2)n1` [Compound 32], the IC50 on CDK2/cyclin A2 is no less than 100 nM; at CDK4/cyclin D3 it was 10 to 100 nM.
On the same counts, the results for `CC1CN(c2nc([C@@H](C)O)cc3cnc(Nc4ccc(CN5CCN(C)CC5)cn4)nc23)CC1C` (stereo partly drawn) [Compound 141] are no less than 100 nM and less than 10 nM.
Turning to `C[C@@H](O)c1cc2cnc(Nc3ccc4c(n3)CCN(C(=O)Cc3ccccn3)C4)nc2c(N2CCCCC2)n1` [Compound 335], the results for the IC50 on CDK2/cyclin A2 and on CDK4/cyclin D3 were no less than 100 nM and 10 to 100 nM, respectively.
As to `C[C@@H](O)c1cc2cnc(Nc3ccc(N4CCNCC4=O)cn3)nc2c(N2CCCCC2)n1` [Compound 52], the IC50 was no less than 100 nM on CDK2/cyclin A2 and less than 10 nM at CDK4/cyclin D3.
Consider `C[C@@H](O)c1cc2cnc(Nc3ccc(CN4CCN(C)CC4)cn3)nc2c(N2CCCOCC2)n1` [Compound 177], for which the IC50 at CDK2/cyclin A2 was no less than 100 nM; at CDK4/cyclin D3, less than 10 nM.
For `CN1CCN(c2ccc(Nc3ncc4cc(CO)nc(C5CCCCC5)c4n3)nc2)CC1` [Compound 5] the same measures were no less than 100 nM and less than 10 nM.
As to `C[C@@H](O)c1cc2cnc(Nc3ccc4c(n3)CCN(C(=O)CN3CCN(CCO)CC3)C4)nc2c(N2C3CCC2CC3)n1` [Compound 263], the IC50 at CDK2/cyclin A2 is no less than 100 nM; at CDK4/cyclin D3 it was less than 10 nM.
Take `O=C1CCNCCN1c1ccc(Nc2ncc3cc(CO)nc(N4CCCCC4)c3n2)nc1` [Compound 244]: the IC50 was no less than 100 nM on CDK2/cyclin A2 and less than 10 nM at CDK4/cyclin D3.
Turning to `CC(O)c1cc2cnc(Nc3ccc(OC4CCCNC4)cn3)nc2c(N2C3CCC2CC3)n1` (stereo not drawn) [Compound 242], the IC50 at CDK2/cyclin A2 was no less than 100 nM; on CDK4/cyclin D3 it was less than 10 nM.
Turning to `CC(O)c1cc2cnc(Nc3ccc(N4CCNCC4=O)cn3)nc2c(N2CCOCC2C)n1` (stereo not drawn) [Compound 300], the IC50 on CDK2/cyclin A2 was no less than 100 nM; at CDK4/cyclin D3, 10 to 100 nM.
For the compound `OC(c1cc2cnc(Nc3ccc(N4CCNCC4)cn3)nc2c(N2CCOCC2)n1)C(F)(F)F` (stereo not drawn) [Compound 35, 2,2,2-trifluoro-1-(8-morpholino-2-((5-(piperazin-1-yl)pyridin-2-yl)amino)pyrido[3,4-d]pyrimidin-6-yl)ethanol], the IC50 is no less than 100 nM at CDK2/cyclin A2 and 10 to 100 nM on CDK4/cyclin D3.
For `CC[C@H](O)c1cc2cnc(Nc3ccc(N4CCNCC4=O)cn3)nc2c(N2CCC[C@H]2C)n1` [Compound 246] the same measures were no less than 100 nM and less than 10 nM.
For `C[C@@H](O)c1cc2cnc(Nc3ccc(O[C@@H]4CCN(CCO)C[C@@H]4F)cn3)nc2c(N2CCCCC2)n1` [Compound 132], the figures for the IC50 on CDK2/cyclin A2 and on CDK4/cyclin D3 were no less than 100 nM and less than 10 nM, respectively.
For the compound `C[C@@H](O)c1cc2cnc(Nc3ccc(C(=O)N4CCN(C)CC4)cn3)nc2c(N2CCC(F)CC2)n1` [Compound 320], the IC50 at CDK2/cyclin A2 was no less than 100 nM; at CDK4/cyclin D3 it was less than 10 nM.
With `C[C@@H](O)c1cc2cnc(Nc3ccc4c(n3)CCN(CCO)C4)nc2c(N2CCC(C#N)CC2)n1` [Compound 278], the IC50 on CDK2/cyclin A2 was no less than 100 nM; at CDK4/cyclin D3, less than 10 nM.
With `C[C@@H](O)c1cc2cnc(Nc3ccc(CN4CCC(CO)CC4)cn3)nc2c(N2CCCC2)n1` [Compound 69], the IC50 is no less than 100 nM on CDK2/cyclin A2 and less than 10 nM on CDK4/cyclin D3.
In the case of `C[C@@H](O)c1cc2cnc(Nc3ccc4c(n3)CCNC4)nc2c(N2CCCCC2)n1` [Compound 62], the IC50 was no less than 100 nM on CDK2/cyclin A2 and less than 10 nM on CDK4/cyclin D3.
With `CC(O)c1cc2cnc(Nc3ccc(CN4CCN(CCO)CC4)cn3)nc2c(N2C3CCCC2CC3)n1` (stereo not drawn) [Compound 105], the IC50 was no less than 100 nM on CDK2/cyclin A2 and less than 10 nM at CDK4/cyclin D3.
`C[C@@H](O)c1cc2cnc(Nc3ccc(CN4CCN(C)C[C@@H]4C)cn3)nc2c(N2C3CCC2CC3)n1` [Compound 187]: the IC50 on CDK2/cyclin A2 is no less than 100 nM; on CDK4/cyclin D3, less than 10 nM.
With `C[C@@H](O)c1cc2cnc(Nc3ccc4c(n3)CCNC4)nc2c(N2CCC(F)CC2)n1` [Compound 63], the results for the IC50 at CDK2/cyclin A2 and on CDK4/cyclin D3 were no less than 100 nM and less than 10 nM, respectively.
For `C[C@@H](O)c1cc2cnc(Nc3ccc(CN4CCN(C)CC4)cn3)nc2c(N2CCC2)n1` [Compound 172] the same measures were no less than 100 nM and 10 to 100 nM.
